{"source": "patent US20090131356A1", "about": "“miR-15, miR-26, miR-31, miR-145, miR-147, miR-188, miR-215, miR-216, miR-331, mmu-miR-292-3P REGULATED GENES AND PATHWAYS AS TARGETS FOR THERAPEUTIC INTERVENTION” (ASURAGEN, INC., priority 2006, published 2009)", "key": {"HCC2935 cells": {"system": "HCC2935 cells", "test": "Alamar Blue proliferation assay, HCC2935", "format": "cell-based, human", "details": "30 nM, normalized to negative control miRNA (100% proliferation)", "source_text": "The inventors assessed the therapeutic effect of hsa-miR-147 for lung cancer by using 12 individual lung cancer cell lines. To measure cellular proliferation of lung cancer cells, the following parental non-small cell lung cancer (NSCLC) cells were used: cells derived from lung adenocarcinoma (A549, H1299, H522, H838, Calu-3, HCC827, HCC2935), cells derived from lung squamous cell carcinoma (H520, H226), cells derived from lung adenosquamous cell carcinoma (H596), cells derived from lung bronchioalveolar carcinoma (H1650), and cells derived from lung large cell carcinoma (H460). In addition to these parental cell lines, highly metastatic NSCLC cells were used that stably express the firefly luciferase gene: A549-luc, H460-luc, HCC827-luc, H1650-luc, H441-luc. Unlike the parental cell lines, these metastatic cells readily migrate to distant sites of the test animal and form metastases upon subcutaneous, orthotopic, or intravenous injection. Synthetic hsa-miR-147 or negative control miRNA was delivered via lipid-based transfection into A549, H1299, H522, H838, Calu-3, HCC827, HCC2935, H520, H596, H1650, H460, A549-luc, H460-luc, HCC827-luc, H1650-luc, H441-luc cells and via electroporation into H226 cells. […]"}, "[1]": {"system": "human A549 lung cancer xenografts", "test": "A549 lung cancer xenograft, cells electroporated with miRNA before implantation", "format": "in vivo, NOD/SCID mice", "details": "cells electroporated with 5 μg miRNA, injected subcutaneously; tumors measured days 14-20; vs negative control miRNA", "procedure": "The inventors assessed the growth-inhibitory activity of hsa-miR-147 in a human lung cancer xenograft grown in immunodeficient mice. Hsa-miR-147 was delivered into A549 lung cancer cells via electroporation using the BioRad GenePulserXcell™ instrument with the following settings: 15×10^6 cells with 5 μg miRNA in 200 μl OptiMEM, square wave pulse at 150 V for 10 ms. A total of 30×10^6 A549 cells was used to 5×10^6 electroporated cells were mixed with matrigel in a 1:1 ratio and injected subcutaneously into the flank of NOD/SCID mice. As a negative control, A549 cells were electroporated with negative control miRNA (pre-miR-NC#2, Ambion) as describe above. NC miRNA-treated cells were injected into the opposite flank of the same animal to control for animal-to-animal variability. A total of 30×10^6 A549 cells per hsa-miR-147 and NC was used to accommodate 5 injections into 5 animals. Size measurements of tumors started 14 days after injection once tumors have reached a measurable size. Length and width of tumors were determined every day for the following 6 days. Tumor volumes were calculated using the formula V=length×width^2/2 in which the length is greater than the width. Tumor volumes derived from NC-treated cells and hsa-miR-147-treated cells were averaged and plotted over time (FIG. 5). Standard deviations are shown in the graph. […]"}, "[2]": {"system": "human H460 lung cancer xenografts", "test": "Established H460 lung tumor xenograft, intratumoral injection of lipid-formulated miRNA", "format": "in vivo, NOD/SCID mice", "details": "intratumoral 6.25 μg on days 11, 14 and 17, siPORT amine formulation; day 19", "source_text": "Delivery of hsa-miR-147 into human lung cancer cells prior to implantation into the animal inhibited the formation of lung tumor xenografts. […] To explore this possibility, 3×10^6 human H460 non-small cell lung cancer cells were mixed with BD Matrigel™, (BD Biosciences; San Jose, Calif., USA; cat. no. 356237) in a 1:1 ratio and subcutaneously injected into the lower back of each of 23 NOD/SCID mice (Charles River Laboratories, Inc.; Wilmington, Mass., USA). Once animals developed palpable tumors (day 11 post xenograft implantation), each animal in a group of six received intratumoral injections of 6.25 μg hsa-miR-147 (Dharmacon, Lafayette, Colo.) formulated with the lipid-based siPORT™ amine delivery agent (Ambion, Austin, Tex.; cat. no. AM4502) on days 11, 14 and 17. A control group of six animals each received intratumoral injections of 6.25 μg negative control miRNA (NC; Dharmacon, Lafayette, Colo.), following the same injection schedule that was used for hsa-miR-147. Given an average mouse weight of 20 g, this dose equals 0.3125 mg/kg. […] Caliper measurements of tumors were taken every 1-2 days, and tumor volumes were calculated using the formula, Volume=length×width×width/2, in which the length is greater than the width."}}, "data": [{"substance": "hsa-miR-147: Synthetic pre-miR-147 (Ambion AM17100; Dharmacon in vivo); mature sequence GUGUGUGGAAAUGCUUCUGC, MIMAT0000251, SEQ ID NO:114 (synthetic pre-miR (Ambion/Dharmacon), chemistry not given here; listed as Homo sapiens)", "values": [{"measurement": "% proliferation", "setting": "HCC2935 cells", "result": 60.35, "unit": "%"}, {"measurement": "tumor growth of A549 xenograft", "setting": "[1]", "result": "inhibited tumor growth in vivo"}, {"measurement": "average tumor size", "setting": "[2]", "result": 260, "unit": "mm^3"}]}]}
